Measured values published in patent publication US7235537B2, “N3 alkylated benzimidazole derivatives as MEK inhibitors” (Array BioPharma, Inc., priority 2002, dated 2007).

tested on: N-terminal 6 His-tagged, constitutively active MEK1 (2-393); assay: MEK1 kinase assay (incorporation of γ-33P-phosphate from γ-33P-ATP onto ERK2); type: biochemical; settings: 5 nM MEK1, 1 μM ERK2, 10 μM ATP, 45 minutes at ambient temperature, 1% DMSO
Description: The activity of the compounds of the present invention may be determined by the following procedure. N-terminal 6 His-tagged, constitutively active MEK1 (2-393) is expressed in E. coli and protein is purified by conventional methods (Ahn et al., Science 1994, 265, 966-970). The activity of MEK1 is assessed by measuring the incorporation of γ-^33P-phosphate from γ-^33P-ATP onto N-terminal His tagged ERK2, which is expressed in E. coli and is purified by conventional methods, in the presence of MEK1. The assay is carried out in 96-well polypropylene plate. The incubation mixture (100 μL) comprises of 25 mM Hepes, pH 7.4, 10 mM MgCl2, 5 mM β-glycerolphosphate, 100 μM Na-orthovanadate, 5 mM DTT, 5 nM MEK1, and 1 μM ERK2. Inhibitors are suspended in DMSO, and all reactions, including controls are performed at a final concentration of 1% DMSO. Reactions are initiated by the addition of 10 μM ATP (with 0.5 μCi γ-^33P-ATP/well) and incubated at ambient temperature for 45 minutes. Equal volume of 25% TCA is added to stop the reaction and precipitate the proteins. Precipitated proteins are trapped onto glass fiber B filterplates, and excess labeled ATP washed off using a Tomtec MACH III harvester. Plates are allowed to air-dry prior to adding 30 μL/well of Packard Microscint 20, and plates are counted using a Packard TopCount.

| SMILES | Activity |
| --- | --- |
| O=C(NOCCO)c1cc2c(ncn2CC2CCCCO2)c(F)c1Nc1ccc(Br)cc1Cl (stereo not drawn) [Compound 11p, 6-(4-Bromo-2-chloro-phenylamino)-7-fluoro-3-(tetrahydro-pyran-2-ylmethyl)-3H-benzoimidazole-5-carboxylic acid (2-hydroxy-ethoxy)-amide] | active |
| Cn1cnc2c(F)c(Nc3ccc(Br)cc3F)c(C(=O)NOC(C)(C)CO)cc21 [Compound 29mmm] | active |
| O=C(NOCCO)c1cc2[nH]cnc2c(F)c1Nc1ccc(Br)cc1Cl [Compound 8n] | active |
| Cc1cc(Br)ccc1Nc1c(C(=O)NOCC2CC2)cc2c(ncn2C)c1F [Compound 11c] | active |
| O=C(NOCC1CC1)c1cc2[nH]cnc2c(F)c1Nc1ccc(Br)cc1Cl [Compound 11b, 6-(4-Bromo-2-chloro-phenylamino)-7-fluoro-3H-benzoimidazole-5-carboxylic acid cyclopropylmethoxy-amide] | active |
| Cn1cnc2c(F)c(Nc3ccc(Br)cc3F)c(C(=O)NOCCO)cc21 [Compound 29lll] | active |

Next, values leading:

| Activity | SMILES |
| --- | --- |
| active | Cn1cnc2c(F)c(Nc3ccc(Br)cc3Cl)c(C(=O)NOC(C)(C)CO)cc21 [Compound 29i] |
| active | CCCCn1cnc2c(F)c(Nc3ccc(Br)cc3Cl)c(C(=O)NOCC3CC3)cc21 [Compound 29bb] |
| active | Cc1cc(Br)ccc1Nc1c(C(=O)NOCC2CC2)cc2c(ncn2CCCCN2CCCCC2)c1F [Compound 18i] |
| active | Cc1nc(Cn2cnc3c(F)c(Nc4ccc(Br)cc4Cl)c(C(=O)NOCCO)cc32)cs1 [Compound 29s] |
| active | O=C(NOCCO)c1cc2c(ncn2Cc2ccc(Cl)cc2)c(F)c1Nc1ccc(Br)cc1Cl [Compound 29t] |
| active | Cn1cnc2c(F)c(Nc3ccc(Br)cc3Cl)c(C(=O)NOCCO)cc21 [Compound 29c, 6-(4-Bromo-2-chloro-phenylamino)-7-fluoro-3-methyl-3H-benzoimidazole-5-carboxylic acid (2-hydroxy-ethoxy)-amide] |
